Laboratory results from article PMC11505038, “Kalata B1 Enhances Temozolomide Toxicity to Glioblastoma Cells” (Biomedicines, 2024).
Where a SMILES comes first, the peptide text is derived from it. Bridges are numbered along the chain shown (N, C = ends).

Experiments:
[1] = tested on: glioblastoma cells; details: cited from earlier work
[2] = tested on: U-87 MG cells; details: cited from earlier work
[3] = cited from earlier work
From the text: One of our objectives is to promote research that investigates methods to decrease the required concentrations of drugs such as TMZ for efficacy in vivo. Therefore, it is important to analyze the stability of cyclotides in human serum. The trypsin inhibitor cyclotide, MCoTI-II, has been extracted from the seeds of Momordica cochinchinensis Spreng. [Cucurbitaceae]. […] Huang and colleagues repeated these experiments with MCoTI-II and an ...

[4] = Human serum stability assay (UPLC-MS); details: data points of 3 h, 8 h and 24 h; human serum from male AB plasma, 300 µM stock diluted 10 times, 37 °C, UPLC-MS peak area vs control, triplicate
Protocol: Established protocols were used to analyze peptide stability in human serum isolated from male AB plasma (Sigma-Aldrich). Briefly, thawed plasma was centrifuged for 10 min at 15,000× g to concentrate lipids. The supernatant was carefully removed with a Pasteur pipette and incubated for 15 min at 37 °C, 5% CO2. […] Controls were synthetic Kalata B1 or TMZ in PBS that were incubated in parallel with human serum test compounds. Serum proteins were denatured with urea (final concentration of 3M) at 4 °C for 10 min., at each time point. Afterwards, trichloroacetic acid (7% final v/v) was added for 10 min to precipitate the proteins. Each sample was centrifuged for 10 min at 15,000× g; the supernatant was removed an evaluated in triplicate using UPLC-MS.
We conducted peptide stability assays in human serum isolated from male AB plasma and then analyzed with UPLC-MS. Synthetic Kalata B1 and TMZ were incubated with human serum and the portion of the peptide remaining was quantified by calculating the area of the respective elution peak in UPLC-MS, compared to the control.
Percentage of Kalata B1 and TMZ remaining upon incubation with human serum. The portion of serum-treated peptide remaining was determined by calculating the area of the respective elution peak in UPLC-MS and comparing it with the control without incubation. Data points are means ± SEM.

[5] = tested on: U-87 MG human glioblastoma cells; experiment: cells; details: read-out: IC50 (μM) ± S.D.; U-87 MG, MTT, 72 h, 6000 cells/well, cyclotides 0.1-10 μM, TMZ 0.5-5000 μM, best fit nonlinear regression, triplicate wells, n = 3
Protocol: SH-SY5Y human neuroblastoma cells (population doubling (PD) 20−24), T-98G, and U-87 MG human glioblastoma cells were removed from cryogenic storage, thawed rapidly in a water bath (37 °C) and reconstituted in 75 cm^2 flasks. For SH-SY5Y, the following media were used: Dulbecco’s modified Eagle’s medium/Nutrient F12 Ham (Sigma-Aldrich, Cat. No. D8437) containing 10% heat-inactivated fetal bovine serum, 4 mM L-glutamine, 100 U/mL penicillin, and 100 μg/mL streptomycin. For U-87 MG and T-98G Eagle’s minimal essential medium (ATCC: The Global Bioresource Center, Cat. No. ATCC 30-2003), containing 10% heat-inactivated fetal bovine serum, 4 mM L-glutamine, 100 U/mL penicillin, and 100 μg/mL streptomycin were used.
Cells were incubated at 37 °C in a humidified atmosphere of 5% CO2 and 95% air until recovered and ready for passaging (approximately 4 days). At between 80% and 90% confluence, the cells were trypsinized with warm (37 °C) sterile 0.5% Trypsin-EDTA (Thermo Fisher, Cat. No. 15400054) and passaged into 175 cm^2 flasks, where they were left to multiply until they reached 80−90% confluence. To plate cells: cultures were trypsinized, resuspended in 20 mL sterile PBS, counted using a cell counter (Olympus cell counter model R1), and plated in 96-well plates at an optimal density of 6000 cells/well in the designated culture media. The cells were left to adhere overnight before treatment the following day, when the culture medium was removed and replaced with the treatment medium. All incubations were conducted in triplicate wells and repeated at least three times (n = 3).
To calculate TMZ IC50 values in each cell line, TMZ was dissolved in DMSO at a stock concentration of 103 mM, which was then diluted into culture medium on the day of use, with the DMSO final concentration always less than 0.1%. The following concentrations of TMZ were used in the experiments: 0.5, 5, 50, 500, 2500, 5000 μM. The media were sterilized for each treatment media with a 0.22 μm filter before they were added to cell cultures. To determine the IC50 values for each cyclotide in each cell type, cyclotides were dissolved into 10% DMSO and then dilutions used to screen cyclotides with a final DMSO concentration of less than 0.1% The following concentrations of cyclotides were used: 0.1, 1, 5, 10 μM. For co-exposure experiments, a simultaneous exposure of cyclotide and TMZ at each respective dose was added to cell cultures (100 μL final volume per well).
In accordance with the methods developed by Mosmann and colleagues, the MTT assay was conducted using the Roche cell proliferation kit (Cat. No. 11465007001). Briefly, cells that are active can cleave MTT. The MTT is originally a yellow tetrazolium salt that undergoes a colorimetric change to purple formazan crystals, and the change in absorbance can be measured as an indicator of cell viability/proliferation. For these experiments, cells were plated into 96-well flat-bottom plates, as described in the cell culture above. […] To align with our previous work, experiments were conducted with a 72 h time frame for cytotoxicity evaluation.
After a 72 h incubation period, plates were removed from the incubator and 10 µL of MTT was added to each well. The plates were returned to the incubator for an additional 4 h, after which 100 µL of a solubilization solution was added to each well. The plates were returned to incubation overnight, and the next day absorbances were read at 570 nm on a Molecular Devices FlexStation 3 using SoftMax Pro Microplate Data Acquisition and Analysis Software (version 7.0.2).

Varv peptide A
IC50 [1]: 2.91 µM
Fold less TMZ required for significant cell death on co-exposure with the cyclotide [2]: 2 fold

MCoTI-II: trypsin inhibitor cyclotide extracted from the seeds of Momordica cochinchinensis; three-disulfide peptide (cyclo(SGSDGGVCPKILKKCRRDSDCPGACICRGNGYCG); disulfide (positions not given here); also: three disulfides, pairing not given here; UniProt P82409 1-34, looked up)
Peptide remaining in human serum ([3]; 24 h): 100%
Time for which the peptide remained stable in human serum [3]: at least 24 h

CC(C)C[C@@H]1NC(=O)CNC(=O)[C@H](CC(N)=O)NC(=O)[C@H](CCCNC(=N)N)NC(=O)[C@H]([C@@H](C)O)NC(=O)[C@@H]2CSSC[C@@H]3NC(=O)[C@H]([C@@H](C)O)NC(=O)CNC(=O)CNC(=O)[C@H](C(C)C)NC(=O)[C@@H]4CSSC[C@H](NC(=O)[C@H]([C@@H](C)O)NC(=O)[C@H](CSSC[C@H](NC(=O)[C@H](C(C)C)NC(=O)[C@@H]5CCCN5C1=O)C(=O)NCC(=O)N[C@@H](CCC(=O)O)C(=O)N[C@@H]([C@@H](C)O)C(=O)N4)NC(=O)CNC(=O)[C@@H]1CCCN1C(=O)[C@H]([C@@H](C)O)NC(=O)[C@H](CC(N)=O)NC3=O)C(=O)N[C@@H](CO)C(=O)N[C@@H](Cc1c[nH]c3ccccc13)C(=O)N1CCC[C@H]1C(=O)N[C@@H](C(C)C)C(=O)N2 [Kalata B1]
Stability in human serum (in words) [4]: remained stable

CC(C)C[C@@H]1NC(=O)CNC(=O)[C@H](CC(N)=O)NC(=O)[C@H](CCCNC(=N)N)NC(=O)[C@H](Cc2ccccc2)NC(=O)[C@@H]2CSSC[C@@H]3NC(=O)[C@H]([C@@H](C)O)NC(=O)CNC(=O)CNC(=O)[C@H](C(C)C)NC(=O)[C@@H]4CSSC[C@H](NC(=O)[C@H](CO)NC(=O)[C@H](CSSC[C@H](NC(=O)[C@H](C(C)C)NC(=O)[C@@H]5CCCN5C1=O)C(=O)NCC(=O)N[C@@H](CCC(=O)O)C(=O)N[C@@H]([C@@H](C)O)C(=O)N4)NC(=O)CNC(=O)[C@@H]1CCCN1C(=O)[C@H]([C@@H](C)O)NC(=O)[C@H](CC(N)=O)NC3=O)C(=O)N[C@@H](CO)C(=O)N[C@@H](Cc1c[nH]c3ccccc13)C(=O)N1CCC[C@H]1C(=O)N[C@@H](C(C)C)C(=O)N2 [Vitri E]
IC50 [5]: 21.1 ± 2.9 µM

CC[C@H](C)[C@@H]1NC(=O)[C@@H]2CSSC[C@@H]3NC(=O)[C@H](C(C)C)NC(=O)[C@H](CCCCN)NC(=O)[C@H](CO)NC(=O)[C@H](CCCCN)NC(=O)[C@@H]4CSSC[C@H](NC(=O)[C@H](CO)NC(=O)[C@H](CCC(=O)O)NC(=O)CNC(=O)[C@H](CSSC[C@H](NC(=O)CNC(=O)[C@H](C(C)C)NC(=O)[C@H](C(C)C)NC(=O)[C@H](CO)NC(=O)[C@H](CO)NC1=O)C(=O)N[C@@H](CO)C(=O)N4)NC(=O)[C@@H]1CCCN1C(=O)[C@H](CC(C)C)NC(=O)[C@H]([C@@H](C)O)NC(=O)CNC(=O)[C@H](CC(=O)O)NC(=O)[C@H](CCCCN)NC(=O)[C@H](Cc1ccc(O)cc1)NC3=O)C(=O)N[C@@H](C(C)C)C(=O)N[C@@H](Cc1c[nH]c3ccccc13)C(=O)N[C@@H]([C@@H](C)CC)C(=O)N1CCC[C@H]1C(=O)N2 [CyO19, Cycloviolacin O19] (cyclo(CGESCVWIPCISSVVGCSCKSKVCYKDGTLP); disulfide 1-17, 5-19, 10-24)
IC50 [5]: 2.4 ± 0.07 µM

CC[C@H](C)[C@@H]1NC(=O)[C@H](C)NC(=O)[C@H](CO)NC(=O)[C@H]([C@@H](C)O)NC(=O)[C@H](CC(C)C)NC(=O)[C@@H]2CSSC[C@@H]3NC(=O)[C@H](C(C)C)NC(=O)[C@H](CCCCN)NC(=O)[C@H](CO)NC(=O)[C@H](CCCCN)NC(=O)[C@@H]4CSSC[C@H](NC(=O)[C@H](CO)NC(=O)[C@H](CCC(=O)O)NC(=O)CNC(=O)[C@H](CSSC[C@H](NC(=O)CNC1=O)C(=O)N[C@@H](CO)C(=O)N4)NC(=O)[C@@H]1CCCN1C(=O)[C@H]([C@@H](C)CC)NC(=O)CNC(=O)[C@H](CC(N)=O)NC(=O)[C@H](CCCNC(=N)N)NC(=O)[C@H](Cc1ccc(O)cc1)NC3=O)C(=O)N[C@@H](C(C)C)C(=O)N[C@@H](Cc1c[nH]c3ccccc13)C(=O)N[C@@H]([C@@H](C)CC)C(=O)N1CCC[C@H]1C(=O)N2 [CyO3, Cycloviolacin O3] (cyclo(AIGCSCKSKVCYRNGIPCGESCVWIPCLTS); disulfide 4-18, 6-22, 11-27)
IC50 [5]: 2.6 ± 0.05 µM
